{
  "source": "patent US20120020946A1",
  "about": "“Methods for Inactivating Viruses” (priority 2009, published 2012)",
  "key": {"[1]": {"system": "RD cell line (human rhabdomyosarcoma)"}, "[2]": {"system": "Poliovirus Sabin (Type 2H.010704)", "format": "cell-based"}},
  "data": [
    {"smiles": "OCl", "note": "[Hypochlorite, Sodium hypochlorite]", "values": [
      {"measurement": "cytotoxicity score, no virus added", "setting": "[1]", "result": "N"},
      {"measurement": "infectivity score, virus added", "setting": "[2]", "result": "N"}
    ]}
  ]
}
